Assay results: patent US8802849B2, “Tricyclic benzo[4,5]thieno-[2,3-d]pyrimidine-4-yl-amin derivatives, their salts, process for producing the compounds and their pharmaceutical use” (Vichem Chemie Kutató Kft., priority 2008, dated 2014)

What was measured:
CK1-alpha = CK1-alpha (Homo sapiens, UniProt P48729); experiment: CK1-alpha kinase assay; assay type: biochemical; conditions: 10 μM compound; read-out: CK1-alpha percent of inhibition
Procedure, shortened: (§1)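 Compound was diluted into buffer to 10 μM and mixed with kinase at a level giving 10% ATP turnover, substrate at five times its Km, and ATP at KmATP spiked with [γ-33P]ATP. After 1 hour at room temperature, EDTA ended the reaction and filter-bound radioactivity was counted.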

AKT1/PKBa = AKT1/PKBa (Homo sapiens, UniProt P31749); experiment: AKT1/PKBa kinase assay; assay type: biochemical; conditions: 10 μM compound; read-out: AKT1/PKBa percent of inhibition
Procedure, shortened: as §1

Abl = Abl (Homo sapiens, UniProt P00519); experiment: Abl kinase assay; assay type: biochemical; conditions: 10 μM compound; read-out: Abl percent of inhibition
Procedure, shortened: as §1

EGFR = EGFR (Homo sapiens, UniProt P00533); experiment: EGFR kinase assay (33P-ATP filter plate); assay type: biochemical; conditions: 10 μM compound; read-out: EGFR percent of inhibition
Procedure, shortened: as §1

SRPK1 = SRPK1 (Homo sapiens, UniProt Q96SB4); experiment: SRPK1 kinase assay; assay type: biochemical; conditions: 10 μM compound; read-out: SRPK1 percent of inhibition
Procedure, shortened: as §1

P70S6K = P70S6K (Homo sapiens, UniProt P23443); experiment: P70S6K kinase assay; assay type: biochemical; conditions: 10 μM compound; read-out: P70S6K percent of inhibition
Procedure, shortened: as §1

P56Lck = P56Lck (Homo sapiens, UniProt P06239); experiment: P56Lck kinase assay; assay type: biochemical; conditions: 10 μM compound; read-out: P56Lck percent of inhibition
Procedure, shortened: as §1

c-Src = c-Src (Homo sapiens, UniProt P12931); experiment: c-Src kinase assay; assay type: biochemical; conditions: 10 μM compound; read-out: c-Src percent of inhibition
Procedure, shortened: as §1

Kit = Kit (Homo sapiens, UniProt P10721); experiment: Kit kinase assay; assay type: biochemical; conditions: 10 μM compound; read-out: Kit percent of inhibition
Procedure, shortened: as §1

IKK-beta = biological target: T1, IKK-beta (Homo sapiens, UniProt O14920); experiment: IKK-beta kinase assay; assay type: biochemical; conditions: 10 μM compound; read-out: IKK-beta percent of inhibition
T1 sequence (O14920 1-756): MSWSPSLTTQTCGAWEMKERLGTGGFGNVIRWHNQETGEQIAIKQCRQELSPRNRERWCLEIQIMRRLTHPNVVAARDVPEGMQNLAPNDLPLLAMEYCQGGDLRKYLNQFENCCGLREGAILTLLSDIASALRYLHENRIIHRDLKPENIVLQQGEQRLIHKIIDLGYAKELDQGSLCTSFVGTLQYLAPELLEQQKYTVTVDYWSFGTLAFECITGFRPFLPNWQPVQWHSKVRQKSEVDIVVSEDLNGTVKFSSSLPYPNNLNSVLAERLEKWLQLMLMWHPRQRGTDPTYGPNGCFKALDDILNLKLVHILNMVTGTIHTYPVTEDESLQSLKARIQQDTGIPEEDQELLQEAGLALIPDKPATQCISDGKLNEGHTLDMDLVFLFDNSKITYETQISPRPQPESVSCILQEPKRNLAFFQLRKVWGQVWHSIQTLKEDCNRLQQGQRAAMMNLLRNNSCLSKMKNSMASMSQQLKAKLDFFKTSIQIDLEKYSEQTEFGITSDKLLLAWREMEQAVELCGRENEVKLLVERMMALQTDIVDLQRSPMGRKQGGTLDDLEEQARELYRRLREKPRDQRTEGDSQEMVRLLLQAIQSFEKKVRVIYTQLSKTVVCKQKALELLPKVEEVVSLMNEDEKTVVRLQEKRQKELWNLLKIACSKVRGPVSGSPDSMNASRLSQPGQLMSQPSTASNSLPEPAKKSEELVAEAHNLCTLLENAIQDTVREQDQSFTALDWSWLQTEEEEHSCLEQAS
Procedure, shortened: as §1

InsR = InsR (Homo sapiens, UniProt P06213); experiment: InsR kinase assay; assay type: biochemical; conditions: 10 μM compound; read-out: InsR percent of inhibition
Procedure, shortened: as §1

cMet = cMet (Homo sapiens, UniProt P08581); experiment: cMet kinase assay; assay type: biochemical; conditions: 10 μM compound; read-out: cMet percent of inhibition
Procedure, shortened: as §1

GSK-3beta = GSK-3beta (Homo sapiens, UniProt P49841); experiment: GSK-3beta kinase assay; assay type: biochemical; conditions: 10 μM compound; read-out: GSK-3beta percent of inhibition
Procedure, shortened: as §1

c-Raf = c-Raf (Homo sapiens, UniProt P04049); experiment: c-Raf kinase assay; assay type: biochemical; conditions: 10 μM compound; read-out: c-Raf percent of inhibition
Procedure, shortened: as §1

PDGFR-beta = PDGFR-beta (Homo sapiens, UniProt P09619); experiment: PDGFR-beta kinase assay; assay type: biochemical; conditions: 10 μM compound; read-out: PDGFR-beta percent of inhibition
Procedure, shortened: as §1

Jnk1a1 = Jnk1a1 (Homo sapiens, UniProt P45983); experiment: Jnk1a1 kinase assay; assay type: biochemical; conditions: 10 μM compound; read-out: Jnk1a1 percent of inhibition
Procedure, shortened: as §1

RSK1 = RSK1 (Homo sapiens, UniProt Q15418); experiment: RSK1 kinase assay; assay type: biochemical; conditions: 10 μM compound; read-out: RSK1 percent of inhibition
Procedure, shortened: as §1

ROCK2 = ROCK2 (Homo sapiens, UniProt O75116); experiment: ROCK2 kinase assay; assay type: biochemical; conditions: 10 μM compound; read-out: ROCK2 percent of inhibition
Procedure, shortened: as §1

MAPK-ERK1 = MAPK-ERK1 (Homo sapiens, UniProt P27361); experiment: MAPK-ERK1 kinase assay; assay type: biochemical; conditions: 10 μM compound; read-out: MAPK-ERK1 percent of inhibition
Procedure, shortened: as §1

CDK2/CycA = CDK2/CycA (Homo sapiens, UniProt P24941); experiment: CDK2/CycA kinase assay; assay type: biochemical; conditions: 10 μM compound; read-out: CDK2/CycA percent of inhibition
Procedure, shortened: as §1

Sequence of PDGFR-beta (P09619 33-1106, species assumed): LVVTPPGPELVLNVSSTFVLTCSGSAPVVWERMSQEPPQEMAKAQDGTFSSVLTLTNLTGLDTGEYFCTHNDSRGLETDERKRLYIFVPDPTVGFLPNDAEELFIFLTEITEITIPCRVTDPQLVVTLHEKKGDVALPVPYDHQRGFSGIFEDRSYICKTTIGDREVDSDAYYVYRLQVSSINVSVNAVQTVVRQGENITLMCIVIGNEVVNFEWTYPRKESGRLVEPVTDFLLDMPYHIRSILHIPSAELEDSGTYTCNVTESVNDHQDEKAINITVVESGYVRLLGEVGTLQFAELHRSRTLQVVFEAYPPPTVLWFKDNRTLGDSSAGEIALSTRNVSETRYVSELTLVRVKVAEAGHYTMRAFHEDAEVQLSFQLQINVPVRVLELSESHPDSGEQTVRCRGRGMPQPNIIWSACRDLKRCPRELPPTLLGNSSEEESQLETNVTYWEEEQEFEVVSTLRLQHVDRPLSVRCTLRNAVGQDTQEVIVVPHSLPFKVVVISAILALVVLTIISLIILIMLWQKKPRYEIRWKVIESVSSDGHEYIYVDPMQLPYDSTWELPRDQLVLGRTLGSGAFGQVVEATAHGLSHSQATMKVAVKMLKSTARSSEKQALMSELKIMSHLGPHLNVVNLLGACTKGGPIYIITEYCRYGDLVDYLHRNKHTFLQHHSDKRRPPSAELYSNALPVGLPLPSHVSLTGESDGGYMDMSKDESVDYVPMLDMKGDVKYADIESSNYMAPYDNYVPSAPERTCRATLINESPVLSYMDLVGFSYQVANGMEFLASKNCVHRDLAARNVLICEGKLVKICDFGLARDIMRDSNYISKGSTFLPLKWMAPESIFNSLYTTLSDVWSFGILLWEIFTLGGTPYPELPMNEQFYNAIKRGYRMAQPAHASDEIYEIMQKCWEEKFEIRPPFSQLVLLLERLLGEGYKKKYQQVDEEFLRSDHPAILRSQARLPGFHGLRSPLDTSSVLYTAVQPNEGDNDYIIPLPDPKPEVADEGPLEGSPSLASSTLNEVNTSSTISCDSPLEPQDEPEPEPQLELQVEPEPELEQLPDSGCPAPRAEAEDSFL
Sequence of ROCK2 (O75116 whole entry, species assumed): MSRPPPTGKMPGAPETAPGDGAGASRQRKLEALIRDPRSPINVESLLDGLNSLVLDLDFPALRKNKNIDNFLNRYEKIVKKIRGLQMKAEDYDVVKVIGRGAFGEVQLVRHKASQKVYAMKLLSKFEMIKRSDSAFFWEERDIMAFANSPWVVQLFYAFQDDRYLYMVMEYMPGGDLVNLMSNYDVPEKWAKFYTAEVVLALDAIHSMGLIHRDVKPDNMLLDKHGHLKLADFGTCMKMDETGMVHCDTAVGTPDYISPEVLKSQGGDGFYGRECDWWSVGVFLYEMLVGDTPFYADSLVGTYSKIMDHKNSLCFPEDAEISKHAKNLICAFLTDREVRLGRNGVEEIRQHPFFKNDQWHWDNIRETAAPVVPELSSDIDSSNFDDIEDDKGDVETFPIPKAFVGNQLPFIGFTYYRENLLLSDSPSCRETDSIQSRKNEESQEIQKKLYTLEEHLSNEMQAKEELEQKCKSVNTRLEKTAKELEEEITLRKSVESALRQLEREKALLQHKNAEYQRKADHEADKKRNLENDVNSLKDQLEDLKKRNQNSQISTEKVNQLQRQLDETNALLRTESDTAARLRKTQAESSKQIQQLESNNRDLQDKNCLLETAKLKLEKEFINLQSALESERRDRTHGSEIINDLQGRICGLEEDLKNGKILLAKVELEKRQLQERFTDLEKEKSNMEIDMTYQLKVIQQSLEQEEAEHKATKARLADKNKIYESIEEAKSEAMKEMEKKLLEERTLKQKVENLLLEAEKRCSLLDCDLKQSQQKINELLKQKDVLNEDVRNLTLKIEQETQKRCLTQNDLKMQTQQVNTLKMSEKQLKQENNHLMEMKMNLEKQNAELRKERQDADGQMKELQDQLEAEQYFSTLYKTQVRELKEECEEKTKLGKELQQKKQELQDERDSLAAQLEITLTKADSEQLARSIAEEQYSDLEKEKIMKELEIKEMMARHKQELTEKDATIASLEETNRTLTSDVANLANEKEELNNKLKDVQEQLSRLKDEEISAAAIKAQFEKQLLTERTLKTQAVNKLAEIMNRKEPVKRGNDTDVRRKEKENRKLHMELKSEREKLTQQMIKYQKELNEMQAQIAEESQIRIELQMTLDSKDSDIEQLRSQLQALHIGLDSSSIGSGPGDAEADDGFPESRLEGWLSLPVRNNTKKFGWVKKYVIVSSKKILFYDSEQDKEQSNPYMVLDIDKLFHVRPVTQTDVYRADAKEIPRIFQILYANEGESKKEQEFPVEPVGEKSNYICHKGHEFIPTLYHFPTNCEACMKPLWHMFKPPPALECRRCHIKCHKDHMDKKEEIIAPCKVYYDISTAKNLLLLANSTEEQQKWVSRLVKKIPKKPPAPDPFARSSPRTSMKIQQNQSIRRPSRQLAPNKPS
Sequence of P56Lck (P06239 whole entry, species assumed): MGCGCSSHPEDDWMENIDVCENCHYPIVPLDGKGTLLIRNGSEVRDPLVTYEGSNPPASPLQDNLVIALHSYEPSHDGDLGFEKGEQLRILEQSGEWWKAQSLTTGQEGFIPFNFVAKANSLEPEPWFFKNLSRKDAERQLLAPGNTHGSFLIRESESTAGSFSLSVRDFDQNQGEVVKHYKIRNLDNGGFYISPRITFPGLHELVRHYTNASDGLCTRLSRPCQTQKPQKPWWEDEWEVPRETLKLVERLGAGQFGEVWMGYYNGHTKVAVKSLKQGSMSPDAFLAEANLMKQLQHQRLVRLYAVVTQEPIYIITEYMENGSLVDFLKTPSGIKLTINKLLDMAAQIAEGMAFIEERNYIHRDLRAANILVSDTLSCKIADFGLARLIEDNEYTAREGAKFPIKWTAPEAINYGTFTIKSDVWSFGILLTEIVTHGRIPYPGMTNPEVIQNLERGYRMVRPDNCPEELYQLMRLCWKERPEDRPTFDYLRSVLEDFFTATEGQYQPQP
Sequence of Kit (P10721 26-976, species assumed): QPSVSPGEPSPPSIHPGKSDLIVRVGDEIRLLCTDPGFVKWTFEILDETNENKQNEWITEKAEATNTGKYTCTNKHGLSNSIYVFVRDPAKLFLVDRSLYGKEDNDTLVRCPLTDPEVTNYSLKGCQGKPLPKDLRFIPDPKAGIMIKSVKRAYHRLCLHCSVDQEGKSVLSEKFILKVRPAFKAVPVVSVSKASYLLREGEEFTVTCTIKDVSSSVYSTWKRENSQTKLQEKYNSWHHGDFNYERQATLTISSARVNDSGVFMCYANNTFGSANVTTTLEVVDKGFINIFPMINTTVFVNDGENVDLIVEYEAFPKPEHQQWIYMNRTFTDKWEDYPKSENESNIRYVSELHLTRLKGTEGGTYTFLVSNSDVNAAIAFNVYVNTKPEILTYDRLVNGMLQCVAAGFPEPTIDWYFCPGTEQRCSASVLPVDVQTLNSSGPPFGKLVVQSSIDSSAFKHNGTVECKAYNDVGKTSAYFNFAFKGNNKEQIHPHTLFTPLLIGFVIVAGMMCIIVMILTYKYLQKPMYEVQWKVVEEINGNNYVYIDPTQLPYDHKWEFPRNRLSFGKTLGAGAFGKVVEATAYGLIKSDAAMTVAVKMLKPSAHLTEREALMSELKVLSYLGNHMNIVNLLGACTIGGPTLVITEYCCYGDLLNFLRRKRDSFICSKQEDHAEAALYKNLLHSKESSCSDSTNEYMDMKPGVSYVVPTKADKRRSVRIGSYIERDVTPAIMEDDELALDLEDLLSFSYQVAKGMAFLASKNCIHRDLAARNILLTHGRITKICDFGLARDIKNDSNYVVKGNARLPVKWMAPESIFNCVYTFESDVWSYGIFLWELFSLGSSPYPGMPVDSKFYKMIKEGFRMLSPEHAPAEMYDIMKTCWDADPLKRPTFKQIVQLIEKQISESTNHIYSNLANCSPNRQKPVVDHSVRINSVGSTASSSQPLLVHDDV
Sequence of SRPK1 (Q96SB4 whole entry, species assumed): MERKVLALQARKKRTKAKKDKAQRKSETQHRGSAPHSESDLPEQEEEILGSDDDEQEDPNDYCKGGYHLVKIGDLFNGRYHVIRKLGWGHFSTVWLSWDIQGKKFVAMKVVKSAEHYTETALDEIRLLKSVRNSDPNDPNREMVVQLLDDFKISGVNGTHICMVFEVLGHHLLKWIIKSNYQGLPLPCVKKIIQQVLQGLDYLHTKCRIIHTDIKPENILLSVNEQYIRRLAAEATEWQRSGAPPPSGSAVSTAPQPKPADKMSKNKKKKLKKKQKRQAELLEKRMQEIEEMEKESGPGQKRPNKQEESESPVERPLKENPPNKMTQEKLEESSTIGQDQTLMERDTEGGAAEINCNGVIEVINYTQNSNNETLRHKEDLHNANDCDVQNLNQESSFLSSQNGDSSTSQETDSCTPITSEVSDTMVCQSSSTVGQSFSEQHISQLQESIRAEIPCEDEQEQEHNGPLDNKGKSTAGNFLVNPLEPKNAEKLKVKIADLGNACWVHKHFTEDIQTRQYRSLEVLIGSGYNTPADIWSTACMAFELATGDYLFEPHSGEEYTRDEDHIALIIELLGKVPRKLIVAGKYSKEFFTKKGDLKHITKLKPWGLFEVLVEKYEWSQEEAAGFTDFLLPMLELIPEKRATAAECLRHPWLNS
Sequence of CK1-alpha (P48729 whole entry): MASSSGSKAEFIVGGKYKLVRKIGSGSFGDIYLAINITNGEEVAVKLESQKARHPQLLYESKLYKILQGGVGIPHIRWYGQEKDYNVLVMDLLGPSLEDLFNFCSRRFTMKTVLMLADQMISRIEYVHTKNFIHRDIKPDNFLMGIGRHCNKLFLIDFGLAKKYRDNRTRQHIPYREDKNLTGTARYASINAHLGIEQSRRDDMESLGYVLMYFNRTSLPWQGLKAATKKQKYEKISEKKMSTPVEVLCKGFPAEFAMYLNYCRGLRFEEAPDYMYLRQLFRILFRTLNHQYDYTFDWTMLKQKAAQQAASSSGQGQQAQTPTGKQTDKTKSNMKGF

Row | Structure (SMILES) | inhibition at 10 µM (CK1-alpha) | inhibition at 10 µM (AKT1/PKBa) | inhibition at 10 µM (Abl) | inhibition at 10 µM (EGFR) | inhibition at 10 µM (SRPK1) | inhibition at 10 µM (P70S6K) | inhibition at 10 µM (P56Lck) | inhibition at 10 µM (c-Src) | melting point | inhibition at 10 µM (Kit) | inhibition at 10 µM (IKK-beta) | inhibition at 10 µM (InsR) | inhibition at 10 µM (cMet) | inhibition at 10 µM (GSK-3beta) | inhibition at 10 µM (c-Raf) | inhibition at 10 µM (PDGFR-beta) | inhibition at 10 µM (Jnk1a1) | inhibition at 10 µM (RSK1) | inhibition at 10 µM (ROCK2) | inhibition at 10 µM (MAPK-ERK1) | other results
1 | N#Cc1cccc(Nc2nc(C3CC3)nc3sc4c(c23)CCCC4)c1 [Compound 14, 3-(2-Cyclopropyl-5,6,7,8-tetrahydro-benzo[4,5]thieno[2,3-d]pyrimidin-4-ylamino)-benzonitrile] | 0% | -1% | -3% | 72% | 11% | 2% | 6% | 5% | 176.3 °C | -12% | -6% | -3% | -7% | 2% | -5% | -4% | -4% | -4% | 12% | -4% | inhibition at 10 µM (CDK2/CycA): -3%
2 | COc1cccc(Nc2nc(C3CC3)nc3sc4c(c23)CCCC4)c1 [Compound 15, (2-Cyclopropyl-5,6,7,8-tetrahydro-benzo[4,5]thieno[2,3-d]pyrimidin-4-yl)-(3-methoxy-phenyl)-amine] | 5% | -9% | 12% | 9% | 12% | 4% | -5% | 5% | 186.7 °C | 1% | 12% | 23% | -6% | -6% | -13% | -7% | -3% | 8% | 9% | 6% | inhibition at 10 µM (CDK2/CycA): -14%
3 | Fc1cccc(Nc2nc(C3CC3)nc3sc4ccccc4c23)c1 [Compound 16, (2-Cyclopropyl-benzo[4,5]thieno[2,3-d]pyrimidin-4-yl)-(3-fluoro-phenyl)-amine] | 0% | -7% | 3% | 60% | 10% | 8% | 7% | 2% | 193 °C | -1% | -4% | 2% | 0% | 1% | -4% | -3% | -4% | 2% | 9% | 6% | inhibition at 10 µM (CDK2/CycA): -2%
4 | Clc1cccc(Nc2nc(C3CC3)nc3sc4ccccc4c23)c1 [Compound 17, (2-Cyclopropyl-benzo[4,5]thieno[2,3-d]pyrimidin-4-yl)-(3-chloro-phenyl)-amine] | 0% | -1% | 7% | 86% | 9% | 7% | 9% | 1% | 188 °C | 11% | 8% | -5% | -5% | 3% | 12% | 0% | -8% | -7% | 2% | 2% | inhibition at 10 µM (CDK2/CycA): -2%
5 | Brc1cccc(Nc2nc(C3CC3)nc3sc4ccccc4c23)c1 [Compound 18, (2-Cyclopropyl-benzo[4,5]thieno[2,3-d]pyrimidin-4-yl)-(3-bromo-phenyl)-amine] | 10% | 0% | -2% | 87% | 12% | 2% | 11% | 22% | 180 °C | 5% | 3% | 5% | -7% | 0% | -8% | 0% | -7% | -4% | 4% | -6% | inhibition at 10 µM (CDK2/CycA): -2%
